{"source": "patent US9556217B2", "about": "“Amphiphilic compounds” (WISCONSIN ALUMNI RESEARCH FOUNDATION, priority 2012, dated 2017)", "key": {"[1]": {"test_system": "membrane proteins", "assay": "Retention of extracted membrane proteins in soluble form in micelles (summary)", "source_text": "The amphiphiles were thus evaluated as membrane protein solubilizers and stabilizers and they compared very favorably with DDM, a standard reagent in the field. Compared to DDM, for example, one of the evaluated amphiphiles forms micelles at one-tenth of the concentration required for DDM. Compared with DDM, GDN performs similarly for extracting membrane proteins from membranes, and stably retains the proteins in a soluble form within the micelles for substantially longer (>3 weeks) than DDM. Such improved stability (without sacrificing extraction efficiency) is a valuable trait for research tool amphiphiles.\nThe amphiphiles described herein require lower concentrations than many commonly used surfactants to form stable micelles."}, "[2]": {"molecular_target": "T1, melibiose permease (MelB) (Salmonella typhimurium, UniProt P30878)", "T1 construct": "made in house; host or cells: E. coli DW2-R (ΔmelB, ΔlacZY), vector pK35ΔAHB/WT MelB/CH6", "T1 sequence (P30878 whole entry)": "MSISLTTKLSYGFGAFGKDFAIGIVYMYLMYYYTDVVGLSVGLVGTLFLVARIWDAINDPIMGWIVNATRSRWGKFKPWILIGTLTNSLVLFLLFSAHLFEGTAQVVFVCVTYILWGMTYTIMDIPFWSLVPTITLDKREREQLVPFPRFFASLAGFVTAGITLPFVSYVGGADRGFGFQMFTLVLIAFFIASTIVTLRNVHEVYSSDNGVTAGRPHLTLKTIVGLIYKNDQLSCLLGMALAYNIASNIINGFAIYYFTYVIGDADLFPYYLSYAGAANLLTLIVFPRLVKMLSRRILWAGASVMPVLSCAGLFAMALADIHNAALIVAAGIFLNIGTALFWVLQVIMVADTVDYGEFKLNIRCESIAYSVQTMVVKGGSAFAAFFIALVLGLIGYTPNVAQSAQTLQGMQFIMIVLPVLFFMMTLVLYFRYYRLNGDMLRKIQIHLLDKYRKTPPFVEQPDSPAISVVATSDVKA", "assay": "MelB solubilization and thermostability (SDS-PAGE, immunoblot)", "details": "1.5 wt %; for MelB extraction from membranes at 0° C.: 10 min or 90 min", "method": "DDM (1.5 wt %) or GDN (1.5 wt %) was used to extract MelB from S. typhimurium membranes at 0° C. for 10 min or 90 min and then aggregated material was removed via ultracentrifugation. The amount of MelB in solution was determined by SDS-PAGE with immunoblot detection (FIG. 10).\nThe effect of DDM and GDN on MelB thermostability was assessed by solubilizing the protein at the elevated temperatures for 90 min. […] Presumably MelB denatured and aggregated at the higher temperature in the presence of DDM. […] When MelB expressed in E. coli was used, similar results were obtained (FIG. 11).\nThe protocol reported by Chae and coworkers (Nat. Methods 2010, 7, 1003-1008) was used to evaluate MelB stability with DDM and GDN.\nThe reported protocol3 was used to evaluate MelB stability with DDM and GDN. Vector pK35ΔAHB/WT MelB/CH6 encoding the wild-type MelB with a 6-His tag at the C-terminus and E. coli DW2-R cells (ΔmelB and ΔlacZY) are used for the assay. Cells were harvested, resuspended in a buffer containing 20 mM Tris, pH 7.5, 200 mM NaCl and 10% glycerol. The harvested cells were subjected to French press and centrifugation at 20,000 g for 15 min. Subsequently, membranes were obtained via ultracentrifugation at 43,000 rpm for 3 hr in the Beckman rotor, Type 45 Ti rotor. A protein assay was carried out with a BCA kit (Thermo Scientific, Rockford, Ill.). For the measurement of solubilization efficiency, membrane samples containing MelB were incubated with a solubilization buffer (20 mM Tris, 200 mM NaCl, 10% glycerol, 20 mM melibiose, pH, 7.5) and 1.5 wt % DDM or GDN at 0° C. for 10 min. The final protein concentration was 10 mg/mL. For the MelB thermostability, the samples were incubated for 90 min at the four different temperatures (0, 45, 55, and 65° C.). After ultracentrifugation at 355,590 g in a Beckman Optima™ MAX Ultracentrifuge using a TLA-100 rotor for 45 min at 4° C., 10 μg protein before and after spin for each condition was analyzed by SDS-12% PAGE and immunoblotted with Penta-His-HRP antibody (Qiagen, Germantown, Md.)."}, "[3]": {"molecular_target": "T2, Bacteriorhodopsin (bR) (Halobacterium salinarum, UniProt P02945)", "T2 construct": "Frozen aliquots of purple membranes containing bR at 184 μM were thawed at room temperature; endogenous in cells; host or cells: purple membranes (native)", "T2 sequence (P02945 14-261 limits assumed)": "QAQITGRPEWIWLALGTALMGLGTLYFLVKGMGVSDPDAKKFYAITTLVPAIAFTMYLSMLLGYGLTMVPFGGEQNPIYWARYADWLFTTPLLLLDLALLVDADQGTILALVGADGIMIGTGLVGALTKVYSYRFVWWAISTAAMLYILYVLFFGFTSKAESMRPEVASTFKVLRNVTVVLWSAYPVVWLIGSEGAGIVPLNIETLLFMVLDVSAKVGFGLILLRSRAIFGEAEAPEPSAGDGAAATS", "assay": "Bacteriorhodopsin stability (absorbance at 554 nm)", "details": "0.2 wt % OTG+1.6 wt % agent, RT; for Maintaining the native structure of bR compared with conventional detergents: absorbance at 554 nm over 20 days", "method": "bR was extracted from the native purple membrane with 2.0 wt % octyl-β-D-thioglucoside (OTG) (see Bazzacco at al., Biomacromolecules 2009, 10, 3317-3326). Following ultracentrifugation to remove insoluble debris, the bR solution was diluted with amphiphile solutions to give 0.2 wt % OTG+1.6 wt % new agent or DDM. The absorbance of the solutions at 554 nm was measured periodically over 20 days. […] When the assay was conducted at a lower amphiphile concentration, 0.2 wt % OTG+0.8 wt % new agent or DDM, similar results were obtained (FIG. 3).\nThe procedure for the bR stability assay followed the protocol reported by Bazzacco and coworkers (Biomacromolecules 2009, 10, 3317-3326).\nThe procedure for the bR stability assay generally followed the reported protocol (Bazzacco et al., Biomacromolecules 2009, 10, 3317-3326). Frozen aliquots of purple membranes containing bR at 184 μM were thawed at room temperature and solubilized by using an octylthioglucoside (OTG) solution for 24 hr at 4° C. in a dark room. For this purpose, OTG (CMC=0.28 wt %) was used at 2.0 wt % in 10 mM sodium phosphate (pH 6.9). Membrane debris was then removed from the solubilized material via ultracentrifugation at 200,000 g at 4° C. for 20 min. The supernatant, including bR protein, was transferred into individual DDM, GLC, or GDN solutions, giving final concentration of OTG: new amphiphiles=0.2 wt %: 0.8 wt % (1:4) or 0.2 wt %:1.6 wt % (1:8). The stability of bR in each solution was monitored by measuring absorbance at 554 nm over 20 days."}}, "data": [{"smiles": "CCCCCCCCCCCCO[C@@H]1O[C@H](CO)[C@@H](O[C@H]2O[C@H](CO)[C@@H](O)[C@H](O)[C@H]2O)[C@H](O)[C@H]1O", "note": "[DDM, dodecyl-β-D-maltoside, reference compound]", "values": [{"measurement": "Time until stabilized protein activity began to decay", "setting": "[1]", "value": "a few hours or a few days"}, {"measurement": "MelB extraction from membranes at 0° C.", "setting": "[2]", "value": "quantitatively extract"}, {"measurement": "Soluble MelB at 45° C.", "setting": "[2]; 90 min, 45° C.", "value": "high yield of soluble MelB"}, {"measurement": "Soluble MelB at 55° C.", "setting": "[2]; 90 min", "value": "no soluble protein was obtained"}]}, {"smiles": "C[C@@H]1CC[C@@]2(OC1)O[C@H]1C[C@H]3[C@@H]4CC=C5C[C@@H](OCCC(CO[C@@H]6OC(CO)[C@@H](O[C@H]7OC(CO)[C@@H](O)C(O)C7O)C(O)C6O)CO[C@@H]6OC(CO)[C@@H](O[C@H]7OC(CO)[C@@H](O)C(O)C7O)C(O)C6O)CC[C@]5(C)[C@H]4CC[C@]3(C)[C@@H]1[C@@H]2C", "note": "(some centres unmarked) [GDN, glyco-diosgenin]", "values": [{"measurement": "Time proteins are stably retained in soluble form within the micelles", "setting": "[1]", "value": "> 3", "unit": "weeks"}, {"measurement": "MelB extraction from membranes at 0° C.", "setting": "[2]", "value": "not quite as efficient in extraction"}, {"measurement": "Soluble MelB at 55° C.", "setting": "[2]; 90 min", "value": "large amounts of soluble protein"}, {"measurement": "Soluble MelB at 65° C.", "setting": "[2]; 90 min, 65° C.", "value": "large amounts of soluble protein"}, {"measurement": "Loss in bR protein integrity after 20 days", "setting": "[3]; absorbance at 554 nm", "value": "negligible loss in protein integrity"}, {"measurement": "Maintaining the native structure of bR compared with conventional detergents", "setting": "[3]", "value": "more effective than conventional detergents OTG and DDM"}]}, {"smiles": "CO[C@@H]1CC[C@@]2(C)[C@H](CC[C@@H]3[C@@H]2CC[C@]2(C)[C@@H]([C@H](C)CCCOCC(C)(CO[C@@H]4OC(CO)C(O[C@@H]5OC(CO)[C@@H](O)[C@H](O)C5O)[C@@H](O)C4O)CO[C@@H]4OC(CO)[C@@H](O[C@H]5OC(CO)[C@@H](O)[C@H](O)C5O)[C@H](O)C4O)CC[C@@H]32)C1", "note": "(some centres unmarked) [GLC-2]", "values": [{"measurement": "Maintaining the native structure of bR compared with conventional detergents", "setting": "[3]", "value": "more effective than conventional detergents OTG and DDM"}]}]}
